Experiments:
cord blood LDMNC = experiment: Erythroid differentiation of cord blood LDMNC in liquid culture; type: cell-based, human; conditions: 20 days
Procedure: The ability of purified adult hemoglobin to stimulate erythroid progenitor differentiation has also been studied using a liquid culture system containing Epo. In this liquid culture system hemin is known to accelerate erythroid differentiation of progenitors obtained from normal adult peripheral blood, and to selectively increase fetal hemoglobin production in these cells. Primary low density mononuclear cells (LDMNC) isolated from cord blood were tested in this culture system. […] The addition of HAo (7.8-15.6 μM) to the cultures results in a further increase in glycophorin A/CD71 co-expression (80% vs. 53% in the Epo only control) and benzidine staining (82% vs. 43% in the Epo only control) after 20 days in culture.
The effect of HAo on erythroid differentiation was tested on cord blood LDMNC. […] 1.0 mg/ml HAo (15.6 μM) was added to Epo-stimulated cultures and the cultured cells were analyzed by flow cytometry (Epics Elite, Coulter) after 20 days for the co-expression of the red cell-specific marker, glycophorin A, and the transferrin receptor, CD71. […] Cultured cells were stained with anti-CD71 (abscissa) and anti-glycophorin A (ordinate) antibodies and the number of single- or double-stained cells (z-axis) analyzed. […] The percentage of glycophorin A^+/CD71^+ cells was determined from analysis of at least 6,500 cells per sample.

anemic rats = experiment: Stimulation of erythropoiesis in iron-deficient anemic rats; type: in vivo, Sprague Dawley rats
Procedure: HEMOLINK™ was evaluated for the stimulation of erythropoiesis in anemic rats. Male Sprague Dawley rats were made anemic on an iron deficient diet over a 4 week period. Six of the anemic rats received two infusions via tail vein injection one week apart (dose I and dose II) of 10% of total blood volume of 9.8 g/dL HEMOLINK™. Nine anemic rats received an equivalent amount of parenteral iron (INFJFER™, Sabex) per kg body weight for comparison. Both solutions contained 342.9 mg/L iron. The iron-deficient anemia of the HEMOLINK™ group was characterized by a pretreatment serum iron level of […] (n=1), a reticulocyte count of 0.39±0.08×10^12/L, a red blood cell count of 1.85±0.35×10^12/L, a 6.5±1.26% hematocrit and a total blood hemoglobin of 30.5±4.38 g/L.
Statistical comparisons in FIG. 14 are based on one way analyses of variance, followed by Bonefoni comparison post-hoc tests. The effect of HEMOLINK™ infusion on reticulocyte count, red blood cell count, total hemoglobin and hematocrit in anemic male rats was compared to iron infusion (INFUFER™; an iron-containing pharmaceutical composition) and to pretreatment levels. Significant differences are indicated by *p<0.05 compared with INFUFER™ and **p<0.01 compared with pretreatment anemic rats.

[1] = anemic male rats, two i.v. infusions one week apart

HAo: adult human hemoglobin obtained from red blood cells and purified by displacement chromatography; uncross linked product
percentage of cells co-expressing glycophorin A and CD71 (cord blood LDMNC; HAo 1.0 mg/ml (15.6 μM; b99: 7.8-15.6 μM), Epo-stimulated, untreated 53%): 80%
benzidine staining (cord blood LDMNC; HAo 7.8-15.6 μM, 2 U/ml Epo, Epo only control 43%): 82%

HEMOLINK™: chemically crosslinked hemoglobin prepared by treating human hemoglobin with a polyaldehyde (O-raffinose)
erythropoietic response of anemic female rats (anemic rats; anemic female rats): not significantly different from INFUFER™
serum iron level at study termination (anemic rats; anemic female rats, two doses): 27.70 ± 9.88 mg/dL
increase in hematocrit (anemic rats; [1]): significant increase
increase in number of red blood cells (anemic rats; [1]): significant increase
increase in number of reticulocytes (anemic rats; [1]): significant increase
increase in total hemoglobin concentration (anemic rats; [1]): significant increase
serum iron level at study termination (anemic rats; male rats, two infusions): 10.0 ± 1.95 mg/dL
